Results: patent publication US9603861B2, “Compositions and methods for treating hyperproliferative epidermal diseases” (DERMIPSOR LTD., priority 2005, dated 2017)
One block for each compound: values may come before it.

Experiments:
[1] = test system: HaCat cells; assay: Growth curve and mitotic activity; type: cell-based, human; conditions: 10 mM NA
Procedure: Growth curve and mitotic activity: 2×10^4 cells per ml were seeded in 24-well tissue culture plates and incubated without or with 10 mM NA. The cells were detached by trypsinization at different times (48 h-168 h) following passage and counted using a haemocytometer in tetra-aliquots. For estimation of mitotic activity the cells were cultured on glass coverslips into Petri dishes. After 72 h incubation with or without 10 mM NA the cells were fixed with methanol, stained with Giemsa stain and analyzed by light microscopy. Frequency of mitotic cells at different stages of mitotic cycle (pro-, meta-, ana- and telophases) was calculated. At least 1000 cells were counted for each experiment.

[2] = test system: involucrin; assay: Indirect immunofluorescence, involucrin expression; type: cell-based, human
Procedure: (§1) Effects of NA and or calcipotriol on early (keratin k10 expression) and late (involucrin expression) differentiation processes in HaCat cells were estimated by indirect immunofluorescence.
(§2) In brief, 2×10^4 cells/ml were seeded on glass coverslips into Petri dishes with 0, 5, 10 and 20 mM NA or calcipotriol. After 72 hours of incubation, cells on the glass coverslips were washed with PBS, fixed by ice-cold mixture of methanol:acetone (1:1) and incubated at −20° C. for 10 minutes. Fixed cells were washed in PBS and incubated with blocking buffer (1% BSA in PBS) for 10 minutes, to minimize non-specific absorption of the primary antibodies to the coverslips. Thereafter, the cells were incubated for 1 hour with primary monoclonal antibodies (Keratin 10 expression was detected by antihuman mouse monoclonal antibody, at 1/50 final dilution; Involucrin expression was detected by antihuman involucrin mouse monoclonal antibody at 1/100 final dilution), at 37° C. hour in a humidified chamber. Exhaustive, PBS-washed cells were incubated with fluorophor conjugated goat anti-mouse IgG, at 1/50 final dilution, for 30 minutes at room temperature. The slides were viewed under a Zeiss microscope (Axioskop-2) equipped with epifluorescence optics and the appropriate filters to avoid cross-channel contamination. The level of keratin 10 and involucrin expression was estimated by counting the positive cells relative to the total cell number. On each slide, at least 500-1000 cells were scored.

[3] = test system: KM12; assay: Proliferation assay, KM12 cells; type: cell-based; conditions: NA in pharmacological concentrations, dose dependent
[4] = test system: benign and malignant epidermal cells; assay: Differentiation markers in benign and malignant epidermal cells; type: cell-based
Procedure: (§3) Certain in vitro assays based on keratinocyte cell culture were performed to test NA and the combination of NA and calcipotriol. The experimental design has been described in PCT Patent Publication WO 01/51051, of some of the inventors of the present application.
(§4) Cornified Envelope Formation: Late differentiation processes in HaCat cells treated with NA and or calcipotriol were measured by determining the cornified cell envelope formation, according to the procedures described in Sun and Green (1976) and PCT publication WO 01/51051.
as §1

[5] = test system: A431; assay: Proliferation assay, A431 cells; type: cell-based; conditions: NA in pharmacological concentrations, dose dependent
Procedure: as §3

[6] = test system: HaCat keratinocytes; assay: Long-term NA treatment of HaCat keratinocytes, oxidative stress; type: cell-based, human; conditions: long-term treatment with NA
Source text: Other long-term cultures of cells with other agents are similarly obtained by cultivating HaCat cells, for a prolonged period of time, in medium supplemented with combinations of NA, vitamin D and derivatives thereof and vitamin A.

[7] = test system: HaCat cells; assay: Cornified envelope formation; type: cell-based, human
Procedure: as §4

[8] = test system: HaCat cells; assay: Proliferation assay (MTT method), HaCat cells; type: cell-based, human
Procedure: The antiproliferative activity of calcipotriol and nicotinamide was tested in two model systems: the first a spontaneously immortalized human keratinocyte, which is referred to herein as “HaCat cells” or “HaCat keratinocytes”, and serves as a model for highly proliferative epidermis, such as, but not limited to, psoriatic epidermis (Okenfels et al, 1998), and as a model for effects of external modulators of epidermal differentiation (Paramio, et al., 1997). The second system includes rapidly proliferating human keratinocytes, which are referred to herein as “cultured human epidermal keratinocytes”, and serves as a model for detecting antiproliferative agents in the treatment of psoriasis (Nikoloff, et al., 1988). These models have been used, according to the present invention, to test the antiproliferative efficacy of agents described herein. […] The viability and/or proliferation of HaCat cells and Cultured Human Epidermal Keratinocytes, following treatment with various concentrations of calcipotriol, nicotinamide (NA) or a combination thereof was determined by the MTT assay, according manufacturer in 96-well microtiter plates.

[9] = test system: HaCat cells; assay: Cell cycle parameters by flow cytometry; type: cell-based, human; conditions: NA 72 h, dose dependent
Procedure: Determination of apoptosis and cell cycle parameters was performed by flow cytometry. Cells were seeded in 25 cm2 tissue culture flasks and cultured for 48 h, and then they were exposed to 5, 10 and 20 mM NA for 72 h. Flow cytometry was performed on nuclei prepared with a detergent-trypsin method and stained with propidium iodide (Vindelov et al, 1983).

[10] = test system: human primary keratinocytes; assay: Proliferation assay (MTT method), human primary keratinocytes; type: cell-based; conditions: NA in pharmacological concentrations, dose dependent
Procedure: The antiproliferative activity of calcipotriol and nicotinamide was tested in two model systems: the first a spontaneously immortalized human keratinocyte, which is referred to herein as “HaCat cells” or “HaCat keratinocytes”, and serves as a model for highly proliferative epidermis, such as, but not limited to, psoriatic epidermis (Okenfels et al, 1998), and as a model for effects of external modulators of epidermal differentiation (Paramio, et al., 1997). The second system includes rapidly proliferating human keratinocytes, which are referred to herein as “cultured human epidermal keratinocytes”, and serves as a model for detecting antiproliferative agents in the treatment of psoriasis (Nikoloff, et al., 1988). Human Epidermal Keratinocytes (passages 3-6), obtained from normal face-lift surgery, were cultivated in serum-free KGM®-2 BulletKit® (Clonetics, USA) medium with low calcium for accelerated proliferation of the keratinocytes. The viability and/or proliferation of HaCat cells and Cultured Human Epidermal Keratinocytes, following treatment with various concentrations of calcipotriol, nicotinamide (NA) or a combination thereof was determined by the MTT assay, according manufacturer in 96-well microtiter plates.

[11] = test system: PARP; assay: Immunoblot analysis of PARP expression; type: cell-based, human
Procedure: Immunoblot analysis of PARP expression: immune complexes were detected by incubation with secondary anti-mouse alkaline phosphatase conjugated antibody AP124A (dilution 1:5000) followed by developing with BCIP/NBT color substrate.

[12] = test system: A431 cells; assay: Apoptosis in A431 cells; type: cell-based
[13] = test system: keratin 10 (K10); assay: Indirect immunofluorescence, keratin 10 expression; type: cell-based, human; conditions: 72 hours
Procedure: as §1
as §2, with “The level of keratin 10 and involucrin expression was estimated by counting the positive cells relative to the total cell number.” left out

[14] = test system: HaCat cells; assay: Apoptosis and necrosis by fluorescence microscopy; type: cell-based, human
Procedure: Estimation of apoptosis and necrosis was analyzed using fluorescence microscopy as previously described (Harel et al, 2002). Briefly, HaCat cells were cultured on glass slides and exposed to various concentration of NA (5, 10, 20 and 50 mM). After 72 h the cells were stained with the DNA binding dyes Hoechst 33342 and propidium iodide. Viable cells were identified by intact nuclei and their blue fluorescence, necrotic cells by intact nuclei and red fluorescence, and cells in early or late phase of apoptosis, by fragmented nuclei and blue or red fluorescence. At least one thousand cells were counted for each treatment.

[15] = Skin permeation, Franz diffusion cell; type: in vitro ADME, porcine; conditions: formulations CP and CPNA, 12 hours; QL 1.3 ng/mL
Procedure: Three formulations were prepared. The first comprised Nicotinamide (NA, 2.1 mg/g), the second Calcipotriol (CP, 50 μg/g) and the third, a combination of Calcipotriol (50 μg/g) and Nicotinamide (2.1 mg/g)(CPNA).
The Franz cell assembly and porcine ear skin are used for measuring permeation of drugs through the skin in vitro from various systems and dosage forms (Dick et al. 1992; Simon, et al. 2000; Touitou et al. 1998; Chien 1992). The experiments were carried out in vitro using the Franz diffusion cell assembly and full-thickness skin from porcine ear. The diffusion cells are made from an inert material and the assembly allows for good receiver-fluid mixture and temperature control.
Porcine ear skin was excised from the outer part of the ear and separated from the underlying cartilage. The skin was stored frozen at −20° C. until use, always less than one week. […] A quantity of 100 mg test formulation was placed on 1.77 cm^2 skin in the donor compartment. […]
The experiments were run non-occluded for 12 hours. […] The samples were analyzed for Nicotinamide and Calcipotriol concentrations by HPLC as further described. […]
HPLC assays: The HPLC assays of nicotinamide and calcipotriol were carried as follows: Nicotinamide was analyzed in a Waters Alliance 2795 LC and Quattro Micro™ HPL chromotograph LC-MS system with Hypersil BDS C18, 3 μm, 150×2.1 mm (CN 28103-152130, batch #4796) column. […]

- anti-oxidative enzymes (glutathione peroxidase and catalase) [6]: high levels of anti-oxidative enzymes
Structure (SMILES): NC(=O)c1cccnc1 [NA, Nicotinamide]
- growth curve ([1]; 48-168 hours): growth retardation
- percentage of mitotic cells, times lower compared to untreated ([1]; 72 h): about 2.5 times
- increase of involucrin expression vs control ([2]; 5 mM NA): about 2 times
- level of involucrin expression (positive cells) ([2]; 5 mM NA, control 6.0±1.22%): 11.2±1.68%
- frequency of involucrin positive cells ([2]; 10 mM NA): 11.0±1.13%
- frequency of involucrin positive cells ([2]; 20 mM NA): 15.1±3.93%
- Proliferation of KM12 [3]: significantly inhibited
- differentiation processes: K10, Involucrin, enveloped cornified cell formation markers [4]: promotes the differentiation processes
- Proliferation of A431 [5]: significantly inhibited
- protection to oxidative stress (hydrogen peroxide) [6]: high level of protection to oxidative stress
- frequency of basal and cornified envelope cells ([7]; 5 mM or 10 mM NA): no statistically significant effect
- cornified envelope cell formation ([7]; 15 mM NA): increased
- level of basal cells ([7]; 15 mM NA, untreated 58.6±10.24%): 25.6±5.76%
- frequency of basal cells, of total cell population ([7]; 20 mM NA): about 15%
- frequency of envelope cornified cells, of total cell population ([7]; 20 mM NA, untreated 4.4±2.78%): about 15%
- rate of HaCat cell proliferation ([8]; 0.5-5 mM NA, 72 h): did not change the rate of HaCat cell proliferation
- Proliferation of HaCat keratinocytes ([8]; NA in pharmacological concentrations, dose dependent): significantly inhibited
- frequency of cells in G0-G1, S and G2-M phases [9]: reduction of the cell number in S and G2-M-phases
- Proliferation of human primary keratinocytes [10]: significantly inhibited
- PARP expression (Western blot) ([11]; 10 mM or 20 mM NA): express a basal level of undegraded 116 kDa PARP full protein
- PARP expression (Western blot) ([11]; 50 mM NA, 85 kDa cleavage fragment appears): induced degradation of PARP
- apoptotic death in A431 cells [12]: does not induce apoptotic death
- K10 expression compared to control cells ([13]; 5 mM to 10 mM NA): no effect
- stimulation of K10 expression ([13]; 20 mM NA): 3 fold
- apoptotic death in HaCat cells (summary statement) [14]: does not induce apoptotic death
- apoptogenic effect ([14]; 20 mM and 50 mM NA, 72 h): significant apoptogenic effect
- cells in stage of early apoptosis ([14]; 50 mM NA): 9%
- effected cells with signs of late apoptosis ([14]; 50 mM NA): about 91%
- necrotic cell death ([14]; all tested NA concentrations (5-50 mM)): no tested concentration of NA induced necrotic cell death

- calcipotriol in the receiver compartment [15]: No calcipotriol was detected
Structure (SMILES): C=C1/C(=C\C=C2/CCC[C@]3(C)[C@@H]([C@H](C)/C=C/[C@@H](O)C4CC4)CC[C@@H]23)C[C@@H](O)C[C@@H]1O [calcipotriol, Calcipotriol]
